pIC50: −log10 of the molar value. A value given as a limit tells only on which side of the number the result lay.

In one experiment the target is EGFR (UniProt P00533).
Chain of EGFR (P00533 whole entry, looked up): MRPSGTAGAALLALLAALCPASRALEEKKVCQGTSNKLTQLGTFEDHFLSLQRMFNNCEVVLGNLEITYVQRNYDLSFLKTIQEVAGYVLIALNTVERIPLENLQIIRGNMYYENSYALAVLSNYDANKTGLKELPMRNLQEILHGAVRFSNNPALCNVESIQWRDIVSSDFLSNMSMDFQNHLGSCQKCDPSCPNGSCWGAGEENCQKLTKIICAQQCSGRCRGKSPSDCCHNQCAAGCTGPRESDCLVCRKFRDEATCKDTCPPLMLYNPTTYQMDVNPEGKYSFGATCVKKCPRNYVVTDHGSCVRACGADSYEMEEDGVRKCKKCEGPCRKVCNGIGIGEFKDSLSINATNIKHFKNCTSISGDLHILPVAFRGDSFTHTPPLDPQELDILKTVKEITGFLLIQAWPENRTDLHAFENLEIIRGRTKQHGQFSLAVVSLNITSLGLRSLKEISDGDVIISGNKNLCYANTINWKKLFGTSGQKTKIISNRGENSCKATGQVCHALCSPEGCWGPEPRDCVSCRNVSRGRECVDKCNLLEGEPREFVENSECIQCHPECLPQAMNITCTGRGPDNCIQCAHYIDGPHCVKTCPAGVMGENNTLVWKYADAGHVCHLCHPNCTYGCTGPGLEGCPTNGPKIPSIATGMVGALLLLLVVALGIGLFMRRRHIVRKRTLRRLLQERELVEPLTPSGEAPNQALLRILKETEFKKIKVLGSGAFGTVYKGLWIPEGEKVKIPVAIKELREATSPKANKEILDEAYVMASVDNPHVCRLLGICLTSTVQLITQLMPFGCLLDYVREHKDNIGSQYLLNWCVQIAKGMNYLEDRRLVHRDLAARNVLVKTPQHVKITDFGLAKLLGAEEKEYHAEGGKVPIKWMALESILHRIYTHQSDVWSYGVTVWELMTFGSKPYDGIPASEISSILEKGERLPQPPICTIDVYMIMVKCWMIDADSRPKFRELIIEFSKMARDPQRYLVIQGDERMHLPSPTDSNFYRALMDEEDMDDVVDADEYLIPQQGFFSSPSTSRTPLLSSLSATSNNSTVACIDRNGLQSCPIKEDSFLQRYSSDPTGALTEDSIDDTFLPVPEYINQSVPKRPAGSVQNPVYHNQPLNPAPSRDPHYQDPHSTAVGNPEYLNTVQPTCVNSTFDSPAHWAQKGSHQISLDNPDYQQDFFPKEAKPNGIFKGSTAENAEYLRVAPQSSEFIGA
Details: not given
The term pIC50 denotes the negative decadic logarithm of the IC50, by convention in mol/L. Higher therefore signals a low IC50. `NC(=O)[C@@H]1CCCN1Cc1ccc2ncnc(Nc3ccc4c(cnn4Cc4ccccc4)c3)c2c1` showed a pIC50 of more than 7.00.
Still for that read-out and setting: then `CC(C)(C)OC(=O)[C@H]1CCCN1Cc1ccc2ncnc(Nc3ccc4c(cnn4Cc4ccccc4)c3)c2c1`, with 6.00 to 7.00; and `NC(=O)CNCc1ccc2ncnc(Nc3ccc4c(cnn4Cc4ccccc4)c3)c2c1`, with more than 7.00; and `CN(CC(N)=O)Cc1ccc2ncnc(Nc3ccc4c(cnn4Cc4ccccc4)c3)c2c1`, with more than 7.00.
The same measure, in the same setting: then `CS(=O)(=O)CCNCc1ccc2ncnc(Nc3ccc4c(cnn4Cc4ccccc4)c3)c2c1`, with more than 7.00; and `O=C(O)CNCc1ccc2ncnc(Nc3ccc4c(cnn4Cc4ccccc4)c3)c2c1`, with more than 7.00.

For another experiment, the target named is EGFR (human) (UniProt P00533). Particulars: hn5.
Chain of EGFR (human) (P00533 whole entry, looked up): as above
For the molecule `CS(=O)(=O)CCNCCCOc1ccc2ncnc(Nc3ccc(OCc4ccccc4)cc3)c2c1`, the pIC50 is 4.60 to 5.30.
As to `CS(=O)(=O)CCNCCCCOc1ccc2ncnc(Nc3ccc(S(=O)(=O)c4ccccc4)cc3)c2c1`, the pIC50 was more than 5.30.
Still for that read-out and setting: to `CN(CCCOc1ccc2ncnc(Nc3ccc(OCc4ccccc4)cc3)c2c1)CCS(C)(=O)=O` belongs more than 5.30.
Still for that read-out and setting: then `CS(=O)(=O)CCNCCCCOc1ccc2ncnc(Nc3ccc(OCc4ccccc4)cc3)c2c1`, with more than 5.30; and `CS(=O)(=O)CCNCCCCOc1ccc2ncnc(Nc3ccc(OCc4cccc(F)c4)c(Cl)c3)c2c1`, with 4.60 to 5.30.

Source of the values: the Kinase Knowledgebase extract (Sharma et al. 2016).
